Experiments:
Meg-01 cells [1] = test: Platelet-sized particle production from Meg-01 cells by flow cytometry (GPIIIa positive); format: cell-based, human; settings: for production of GPIIIa positive platelet-sized particles: Meg-01 cells pretreated with 100 ng/ml thrombopoietin for 72 hours, then 100 μM SNO-glu for 2 hours
Procedure: The production of platelet-sized particles in the Meg-01 cell line using flow cytometry was determined. Human megakaryoblastic leukemia cell line Meg-01 was obtained from American Type Culture Collection (Manassas, Va.) and grown in phenol red-free RPMI-1640 media (Gibco-BRL, Grand Island, N.Y.) supplemented with 10% fetal bovine serum at 37° C. in a humidified atmosphere of 5% CO2. The experiment to monitor platelet production by the megakaryocytoid cell line, Meg-01, were performed as follows: 10 ml of Meg-01 cells (1×10^5/ml) were treated with 100 ng/ml of thrombopoietin (TPO, Amgen, Thousand Oaks, Calif.) for 72 hours. The cells were then centrifuged at 1000 rpm for 10 minutes, washed with phosphate buffered saline (PBS) and resuspended in RPMI-1640 media. Meg-01 cells, in the presence and absence of TPO, were treated with 100 μM SNO-glu for 2 hours. The cells were collected by centrifugation (1000 rpm for 10 minutes), washed once in PBS, resuspended in 500 μl of 3% formaldehyde, and allowed to fix for 20 minutes at room temperature. After fixation, 100 μl of cells were labeled with fluorescein isothiocyanate-conjugated (FITC)-conjugated monoclonal mouse anti-human platelet glycoprotein IIIa, CD61 (GPIIIa, DAKO Corp. Carpinteria, Calif.) at a near saturating concentration and incubated at room temperature for 20 minutes. The sample was diluted in 100 μl of PBS and analyzed on a Coulter EPICS XL flow cytometer (Coulter, Miami, Fla.). DNA check flow cytometry beads purchased from Coulter were used for daily instrument calibration. Appropriate color compensation was set for FITC fluorescence and phycoerythrin fluorescence using 525 nm and 575 nm band pass filters, respectively. All data were saved in flow cytometry list mode files and analyzed using Coulter ELITE software, version 2.21. Platelet-sized particles were identified by characteristic log forward light scatter (LFS). Only those particles that bound the anti-GPIIIa-FITC antibody ([…] FITC-conjugated antibody) (Dako, Denmark) were analyzed (by gating the fluorescence signal).

Meg-01 cells [2] = test: Production of cGMP from megakaryocytes treated with SNO-glu (ELISA); format: cell-based, human; settings: for cGMP: n = 2
Procedure: The Meg-01 cells were grown as described in Example 1. The Med-01 cells, in the presence and absence of TPO, were treated with 100 μM SNO-glu for varying lengths of time. The cells were collected by centrifugation (1000 rpm for 10 minutes), and then lysed with 6% trichloroacteic acid (TCA). The cGMP was extracted with distilled water-saturated ether. The cGMP was quantified using the standard ELISA assay (Caymen Chemical Inc., Ann Arbor, Mich.).

Row | Molecule | production of GPIIIa positive platelet-sized particles (Meg-01 cells [1]; listed as S-nitroso-glutathione) | production of GPIIIa positive platelet-sized particles (Meg-01 cells [1]; listed as SNO-glu) | formation of GPIIIa positive platelet-sized particles (Meg-01 cells [1]; Meg-01 cells, 100 μM SNO-glu for 2 hours, no TPO) | cGMP (Meg-01 cells [2]; 100 μM SNO-Glu in the presence of TPO, 30 minutes) [pmol cGMP/mg Protein] | cGMP (Meg-01 cells [2]; 100 μM, 5 minutes) [pmol cGMP/mg Protein] | cGMP (Meg-01 cells [2]; 100 μM, 10 minutes) [pmol cGMP/mg Protein] | cGMP (Meg-01 cells [2]; 100 μM, 20 minutes) [pmol cGMP/mg Protein] | cGMP (Meg-01 cells [2]; 100 μM, 30 minutes) [pmol cGMP/mg Protein] | production of cGMP (in words) (Meg-01 cells [2]; Meg-01 cells, 100 μM SNO-glu) | effect of added TPO on cGMP production during SNO-glu treatment (Meg-01 cells [2]; Meg-01 cells, TPO added during 100 μM SNO-glu treatment)
1 | N[C@@H](CCC(=O)N[C@@H](CSN=O)C(=O)NCC(=O)O)C(=O)O [SNO-Glu, S-nitroso-glutathione] | promoted platelet-like particle formation | enhanced production of GPIIIa positive platelet-sized particles | formation of GPIIIa positive platelet-sized particle population | 0.960 | 263.1 | 461.2 | 472.9 | 611.3 | increased production of cGMP | 
2 | TPO: thrombopoiesis stimulating factor thrombopoietin (TPO, Amgen) |  |  |  |  |  |  |  |  |  | completely suppressed the production of cGMP

From patent US6589759B1, “Compositions and methods for producing platelets and/or proplatelets from megakaryocytes” (Trustees of Boston University, priority 1999, dated 2003)
